Measurements as given in ChEMBL document CHEMBL1144263, “Synthesis and acetylcholinesterase inhibition of derivatives of huperzine B” (Bioorg Med Chem Lett, 2005).

What was measured:
[1] = biological target: T1, Acetylcholinesterase (Rattus norvegicus, UniProt P37136); test: Inhibitory concentration against acetylcholinesterase from rat cortex homogenate by ellman method was determined
T1 sequence (P37136 whole entry): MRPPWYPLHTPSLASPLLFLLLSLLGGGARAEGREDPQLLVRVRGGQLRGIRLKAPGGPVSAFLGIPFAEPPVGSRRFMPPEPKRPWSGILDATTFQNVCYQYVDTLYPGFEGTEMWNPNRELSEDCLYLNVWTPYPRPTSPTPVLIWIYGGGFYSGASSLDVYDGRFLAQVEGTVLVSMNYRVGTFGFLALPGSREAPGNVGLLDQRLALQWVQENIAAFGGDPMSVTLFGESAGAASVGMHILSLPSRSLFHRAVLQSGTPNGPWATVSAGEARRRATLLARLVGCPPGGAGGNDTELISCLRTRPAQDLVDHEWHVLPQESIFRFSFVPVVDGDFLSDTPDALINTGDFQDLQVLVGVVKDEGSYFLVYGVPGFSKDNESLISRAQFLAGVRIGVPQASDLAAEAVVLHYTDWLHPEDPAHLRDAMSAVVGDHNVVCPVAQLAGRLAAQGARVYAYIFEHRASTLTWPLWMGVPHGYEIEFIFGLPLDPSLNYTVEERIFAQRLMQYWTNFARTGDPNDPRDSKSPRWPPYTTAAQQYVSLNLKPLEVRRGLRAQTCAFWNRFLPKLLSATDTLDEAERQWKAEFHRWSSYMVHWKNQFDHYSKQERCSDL

[2] = biological target: Acetylcholinesterase and butyrylcholinesterase (AChE and BChE) (Rattus norvegicus) (UniProt P37136+Q9JKC1); test: Ratio of inhibitory concentration for AChE and BChE; format: protein assay
[3] = biological target: Butyrylcholinesterase (Rattus norvegicus, UniProt Q9JKC1); test: Inhibitory concentration against butyrylcholinesterase from rat serum
Chain of Butyrylcholinesterase (Q9JKC1 whole entry): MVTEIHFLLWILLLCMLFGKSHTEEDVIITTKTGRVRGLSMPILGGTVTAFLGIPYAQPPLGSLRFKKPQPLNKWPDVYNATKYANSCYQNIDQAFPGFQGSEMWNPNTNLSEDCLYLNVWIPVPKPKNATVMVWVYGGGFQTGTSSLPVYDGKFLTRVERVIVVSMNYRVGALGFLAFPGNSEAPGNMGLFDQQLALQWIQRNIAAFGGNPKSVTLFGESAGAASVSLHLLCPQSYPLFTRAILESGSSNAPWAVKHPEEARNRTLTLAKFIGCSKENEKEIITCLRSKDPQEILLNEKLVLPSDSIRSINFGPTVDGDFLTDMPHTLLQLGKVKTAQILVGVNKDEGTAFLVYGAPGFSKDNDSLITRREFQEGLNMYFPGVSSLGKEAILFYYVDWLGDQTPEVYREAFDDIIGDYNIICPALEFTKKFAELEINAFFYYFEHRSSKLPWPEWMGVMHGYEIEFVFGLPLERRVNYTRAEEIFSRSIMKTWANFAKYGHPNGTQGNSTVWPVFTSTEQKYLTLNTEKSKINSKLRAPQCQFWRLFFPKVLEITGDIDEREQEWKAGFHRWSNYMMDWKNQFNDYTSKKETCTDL

Chain of Acetylcholinesterase and butyrylcholinesterase (AChE and BChE) (Rattus norvegicus) (Q9JKC1 1-597, one chain of several): as the sequence (Q9JKC1 whole entry) above

Q: CC1=CC2Cc3[nH]c(=O)ccc3[C@@]3(C1)[C@@H]2CCCN3C(=O)CN(C)CCc1ccccc1 was tested. Which IC50 [1] did it give?
A: 23.5 µM

Q: With CC1=C[C@H]2Cc3[nH]c(=O)ccc3[C@@]3(C1)[C@@H]2CCCN3C(=O)CN1CCCN(CC(=O)N2CCC[C@@H]3[C@H]4C=C(C)C[C@]32c2ccc(=O)[nH]c2C4)CC1 as the compound, how does the Selectivity [2] read?
A: 1500

Q: And the IC50 [1]?
A: 0.114 µM

Q: And the IC50 [3]?
A: 171 µM

Q: CC1=CC2Cc3[nH]c(=O)ccc3[C@@]3(C1)[C@@H]2CCCN3C(=O)CN1CCN(Cc2ccccc2)CC1 was tested. Which IC50 [1] did it give?
A: 33.3 µM

Q: For CC1=C[C@H]2Cc3nc(O)ccc3[C@@]3(C1)[C@@H]2CCCN3CCN1CCN(Cc2cccnc2)CC1, which IC50 [1] is on record?
A: 26.7 µM

Q: CC1=C[C@H]2Cc3nc(O)ccc3[C@@]3(C1)[C@@H]2CCCN3C(=O)N1CCN(Cc2cccnc2)CC1 was tested. Which IC50 [1] did it give?
A: 38.1 µM

Q: Which IC50 [3] does the source give for CC1=C[C@H]2Cc3[nH]c(=O)ccc3[C@@]3(C1)NCCC[C@H]23 here?
A: 157 µM

Q: CC1=C[C@H]2Cc3nc(O)ccc3[C@@]3(C1)[C@@H]2CCCN3CCN(C)CCCc1ccccc1 was tested. Which IC50 [1] did it give?
A: 9.53 µM

Q: How did the IC50 [1] turn out when CC1=C[C@H]2Cc3nc(O)ccc3[C@@]3(C1)[C@@H]2CCCN3CCN(C)CCc1ccccc1 was run?
A: 20.7 µM

Q: How did the IC50 [1] turn out when COc1ccc(CN2CCN(CC(=O)N3CCC[C@@H]4C5C=C(C)C[C@]43c3ccc(=O)[nH]c3C5)CC2)cc1 was run?
A: 5.75 µM

Q: For CC1=CC2Cc3[nH]c(=O)ccc3[C@@]3(C1)[C@@H]2CCCN3C(=O)CN1CCN(Cc2ccc([N+](=O)[O-])cc2)CC1, which IC50 [1] is on record?
A: 5.58 µM

Q: For CC1=CC2Cc3[nH]c(=O)ccc3[C@@]3(C1)[C@@H]2CCCN3C(=O)CN(C)CCCc1ccccc1, which IC50 [1] is on record?
A: 6.19 µM

Q: Which IC50 [1] does the source give for COc1ccc(CN2CCN(CN3CCC[C@@H]4[C@H]5C=C(C)C[C@]43c3ccc(O)nc3C5)CC2)cc1 here?
A: 10.3 µM

Q: For CC1=C[C@H]2Cc3nc(O)ccc3[C@@]3(C1)[C@@H]2CCCN3CN1CCN(Cc2ccccc2)CC1, which IC50 [1] is on record?
A: 31.6 µM

Q: For CC1=C[C@H]2Cc3[nH]c(=O)ccc3[C@@]3(C1)[C@@H]2CCCN3C(=O)CN(C)Cc1ccccc1, which IC50 [1] is on record?
A: 50.7 µM

Q: CC1=C[C@H]2Cc3[nH]c(=O)ccc3[C@@]3(C1)[C@@H]2CCCN3CCN1CCCN(CCN2CCC[C@@H]3[C@H]4C=C(C)C[C@]32c2ccc(=O)[nH]c2C4)CC1 was tested. Which Selectivity [2] did it give?
A: 573

Q: And the IC50 [1]?
A: 0.218 µM

Q: And the IC50 [3]?
A: 125 µM

Q: How did the Selectivity [2] turn out when CC1=C[C@H]2Cc3[nH]c(=O)ccc3[C@@]3(C1)[C@@H]2CCCN3C(=O)CN1CCN(CC(=O)N2CCC[C@@H]3[C@H]4C=C(C)C[C@]32c2ccc(=O)[nH]c2C4)CC1 was run?
A: > 157

Q: What about the IC50 [1] of the same compound?
A: 1.17 µM

Q: What about the IC50 [3] of the same compound?
A: > 184 µM

Q: For CC1=CC2Cc3[nH]c(=O)ccc3[C@@]3(C1)[C@@H]2CCCN3CCN1CCN(CC[N+]2(C(=O)CN)CCC[C@@H]3C4C=C(C)C[C@]32c2ccc(=O)[nH]c2C4)CC1 (stereo partly drawn), which Selectivity [2] is on record?
A: 472

Q: What about the IC50 [1] of the same compound?
A: 0.407 µM

Q: What about the IC50 [3] of the same compound?
A: 192 µM

Q: For CC1=C[C@H]2Cc3nc(O)ccc3[C@@]3(C1)[C@@H]2CCCN3CCN(C)Cc1ccccc1, which IC50 [1] is on record?
A: 66.5 µM

Q: Which IC50 [1] does the source give for CC1=C[C@H]2Cc3[nH]c(=O)ccc3[C@@]3(C1)[C@@H]2CCCN3CCN(Cc1ccccc1)c1ccccc1 here?
A: > 54 µM

Q: With CC1=C[C@H]2Cc3nc(O)ccc3[C@@]3(C1)[C@@H]2CCCN3C(=O)CN(Cc1ccccc1)c1ccccc1 as the compound, how does the IC50 [1] read?
A: > 52 µM
